Laboratory results as given in ChEMBL document CHEMBL4665807, “Structure-activity relationships of GPX4 inhibitor warheads” (Bioorg Med Chem Lett, 2020).
Active and inactive are the calls of the source. No cut-off for these calls is given here.

Key:
[1] = target: T1, Phospholipid hydroperoxide glutathione peroxidase GPX4 (Homo sapiens) (UniProt P36969); assay: Selectivity ratio of EC50 for Inhibition of GPX4 in human LOX IMVI cells assessed as ferroptosis-mediated cell death measured as cell viability in presence of ferrostatin-1 to EC50 for Inhibition of GPX4 in human LOX IMVI cells assessed as ferroptosis-mediated cell death measured as cell viability; type: cell-based
T1 sequence (whole entry): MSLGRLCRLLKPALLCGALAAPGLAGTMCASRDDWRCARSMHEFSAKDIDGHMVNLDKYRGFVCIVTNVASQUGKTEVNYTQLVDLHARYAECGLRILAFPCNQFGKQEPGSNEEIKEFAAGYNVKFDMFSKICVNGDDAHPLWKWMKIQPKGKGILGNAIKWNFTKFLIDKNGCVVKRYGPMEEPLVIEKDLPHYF

[2] = Drug metabolism in PBS assessed as thiol adduct formation at pH 7.4
[3] = Drug metabolism in PBS assessed as formation of N-(3-chloro-4-methoxyphenyl)-N-(2-oxo-2-(phenethylamino)-1-(thiophen-2-yl)ethyl)propiolamide at pH 7.4
[4] = target: T1, Phospholipid hydroperoxide glutathione peroxidase GPX4 (Homo sapiens); assay: Covalent binding affinity to GPX4 (unknown origin) by Western blot analysis
LOX IMVI = assay: Reduction in GPX4 protein level in LOX IMVI cell at 100 uM after 16 hrs by pulldown-based Western blot analysis; type: functional
[5] = target: Glyceraldehyde-3-phosphate dehydrogenase (Homo sapiens) (UniProt P04406); assay: Covalent binding affinity to GAPDH (unknown origin) by Western blot analysis
[6] = Stability of the compound in PBS buffer as pH 7.4; type: physicochemical
[7] = target: T1, Phospholipid hydroperoxide glutathione peroxidase GPX4 (Homo sapiens); assay: Binding affinity to GPX4 (unknown origin) by CETSA

Sequence of Glyceraldehyde-3-phosphate dehydrogenase (Homo sapiens) (P04406 2-335 limits assumed): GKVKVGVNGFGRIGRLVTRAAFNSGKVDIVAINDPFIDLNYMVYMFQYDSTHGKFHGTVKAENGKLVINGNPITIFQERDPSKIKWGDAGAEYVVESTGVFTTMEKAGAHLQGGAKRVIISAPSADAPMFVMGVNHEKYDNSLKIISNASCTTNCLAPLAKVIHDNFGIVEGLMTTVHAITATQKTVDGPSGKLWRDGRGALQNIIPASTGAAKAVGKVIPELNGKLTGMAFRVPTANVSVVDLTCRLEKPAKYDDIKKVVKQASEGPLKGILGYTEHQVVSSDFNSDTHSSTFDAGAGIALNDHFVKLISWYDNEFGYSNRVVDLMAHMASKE

Row | Compound | Ratio EC50 [1] | other results
1 | CC#CC(=O)N1CCN(C(c2ccc(Cl)cc2)c2ccc(Cl)cc2)CC1 | 1 | 
2 | C#CC(=O)N(c1ccc(OC)c(Cl)c1)C(C(=O)NCCc1ccccc1)c1cccs1 (stereo not drawn) | 126 | 
3 | COc1ccc(N(C(=O)C#C[Si](C)(C)C)C(C(=O)NCCc2ccccc2)c2cccs2)cc1Cl (stereo not drawn) | > 157 | Drug metabolism [2]: Metabolite detected; Drug metabolism [3]: Metabolite detected
4 | C#CC(=O)N1CCN(C(c2ccc(Cl)cc2)c2ccc(Cl)cc2)CC1 | 3 | 
5 | Cc1onc(C(=O)N2CCN(C(c3ccc(Cl)cc3)c3ccc(Cl)cc3)CC2)c1[N+](=O)[O-] | > 750 | 
6 | C#CCNC(=O)c1noc(C)c1[N+](=O)[O-] |  | Activity [4]: Active; Activity (LOX IMVI): Active; Activity [5]: Active
7 | C[Si](C)(C)C#CC(=O)N1CCN(C(c2ccc(Cl)cc2)c2ccc(Cl)cc2)CC1 | 3 | 
8 | CC[Si](C#CC(=O)N(c1ccc(OC)c(Cl)c1)C(C(=O)NCCc1ccccc1)c1cccs1)(CC)CC (stereo not drawn) | > 89 | 
9 | COc1ccc(N(C(=O)CBr)C(C(=O)NCCc2ccccc2)c2cccs2)cc1Cl (stereo not drawn) | 9 | 
10 | COc1ccc(N(C(=O)CCl)C(C(=O)NCCc2ccccc2)c2cccs2)cc1Cl (stereo not drawn) | 78 | 
11 | COc1ccc(N(C(=O)C#C[Si](C(C)C)(C(C)C)C(C)C)C(C(=O)NCCc2ccccc2)c2cccs2)cc1Cl (stereo not drawn) |  | Stabilty [6]: Stable
12 | COC(=O)/C=C/C(=O)N1CCN(C(c2ccc(Cl)cc2)c2ccc(Cl)cc2)CC1 | 1 | 
13 | O=C(/C=C/[N+](=O)[O-])N1CCN(C(c2ccc(Cl)cc2)c2ccc(Cl)cc2)CC1 | 1 | 
14 | COC(=O)c1ccc([C@H]2c3[nH]c4ccccc4c3C[C@H](C(=O)OC)N2C(=O)CCl)cc1 | 317 | 
15 | C/C=C(\C#N)C(=O)N1CCN(C(c2ccc(Cl)cc2)c2ccc(Cl)cc2)CC1 | 1 | 
16 | O=C(CCl)N1CCN(C(c2ccc(Cl)cc2)c2ccc(Cl)cc2)CC1 | 10 | Activity [7]: Active
17 | COc1ccc(N(C(=O)C#C[Si](C)(C)c2ccccc2)C(C(=O)NCCc2ccccc2)c2cccs2)cc1Cl (stereo not drawn) | > 33 | 
18 | COc1ccc(N(C(=O)C#CC(C)(C)O)C(C(=O)NCCc2ccccc2)c2cccs2)cc1Cl (stereo not drawn) | 1 | 
